Laboratory results: patent publication EP4610260B1, “ARYL HETEROCYCLIC KV1.3 INHIBITOR, PREPARATION METHOD THEREFOR, AND USE THEREOF” (Shanghai Shenshi Wise Technology Co., Ltd., priority 2022, dated 2024)

Tested on: Kv1.3 potassium channel
Experiment: Whole-cell patch-clamp assay for inhibitory activity against Kv1.3 (peak current)
Format: cell-based
Details: HEK293 cells stably expressing Kv1.3, room temperature
Procedure: 1. Assay for inhibitory activity of compounds against Kv1.X
HEK293 cells stably expressing Kv1.X (Kv1.1, Kv1.2, Kv1.3, Kv1.4, Kv1.5) potassium channels were cultured in DMEM medium containing 10% fetal bovine serum and 800 µg/mL G418 (geneticin) at a culture temperature of 37 °C and a carbon dioxide concentration of 5%.
1.2. Fluids used for recording
The extracellular fluid contained 40 mM NaCl, 3.5 mM KCl, 1 mM MgCl2•6H2O, 2 mM CaCl2•2H2O, 10 mM D-glucose, 10 mM HEPES, 1.25 mM NaH2PO4•2H2O, and the pH was adjusted to 7.4 with NaOH. The intracellular fluid contained 20 mM KCl, 115 mM K-Aspartic, 1 mM MgCl2•6H2O, 5 mM EGTA, 10 mM HEPES, 2 mM Na2-ATP, and the pH was adjusted to 7.2 with KOH.
The voltage stimulation protocol for recording whole-cell Kv1.X potassium currents via patch-clamp was as follows: After formation of a whole-cell seal, the cell membrane voltage was clamped at -80 mV, and then stepped to +40 mV for 500 ms. Data were acquired repeatedly every 30 s and the effect of the drug on Kv1.X currents was observed. […] Then, a slow capacitance compensation was given, and the membrane capacitance and series resistance were recorded. […]
Once the whole-cell recorded Kv1.X current stabilized, drug administration was started. […] For each cell, the current detected in the compound-free extracellular liquid was used as its own control group. […]

Oc1ccc(Cl)c(Cl)c1[C@@H]1Cc2nnc([C@H]3C[C@@H](O)C3)n2C1 [Example 70, 3,4-Dichloro-2-((S)-3-((1s,3R)-3-hydroxycyclobutyl)-6,7-dihydro-5H-pyrrolo[2,1-c][1,2,4]triazol-6-yl)phenol]
IC50: 21.6 nM

Oc1ccc(Cl)c(Cl)c1[C@@H]1Cc2nnc([C@H]3C[C@H](O)C3)n2C1 [Example 71, 3,4-dichloro-2-((S)-3-((1r,3S)-3-hydroxycyclobutyl)-6,7-dihydro-5H-pyrrolo[2,1-c][1,2,4]triazol-6-yl)phenol]
IC50: 10.3 nM
